Data on 5 compounds can be found in US4820873A, “Pyrene derivatives” (priority 1984, dated 1989).

Data set [1] relates to Trichomonas vaginalis. Briefly: Antiprotozoal testing, Trichomonas vaginalis (in vitro). The conditions noted are these: 40 mg/L, Stenton or Modified Diamond's medium, read-out: Result (screen code, inhibition). Type of data set: cell-based. The source says: Antiprotozoal testing against Trichomonas vaginalis was done using methods outlined by R. M. Michaels in Advances in Chemotherapy, 3, 39-108 (1968).
(Stenton or Modified Diamond's medium)

Data set [2] relates to Mycoplasma smegmatis (S3264). Description: Antibacterial screening, Mycoplasma smegmatis, agar dilution assay. Format: cell-based. The source says:
(§1) Antibacterial testing against Mycoplasma smegmatis (S3264) and Streptococcus pyogens (CN10) was done with slight modifications using standard agar dilution assays as outlined in Manual of Clinical Microbiology, Second Ed., E. H. Lennette, E. H. Spaulding and J. P. Truant Eds., American Society for Microbiology, Washington, DC, 1974.

The nature of data set [3]: LD20 in the P388/0 test. Type of data set: in vivo, CD2-F1 mice. The settings on record: intraperitoneal, days 1, 5, 9; doses are on a mg/kg basis. Here is the method: (§2) CD2-F1 mice, of the same sex, weighing 20±3 g, are used for this test. Control and test animals are injected intraperitoneally with a suspension of ~10^6 viable P388/0 tumor cells on day 0. In each test, several dose levels which bracket the LD20 of the compound are evaluated; each dose level group contains 6 animals. The test compounds are prepared either in physiologic saline containing 0.05% Tween 80 or distilled water containing 5% dextrose and are administered intraperitoneally on days 1, 5, and 9 relative to tumor implant. Doses are on a mg/kg basis according to individual animals' body weights. The day of death for each animal is recorded, the median identified for each group and the ratios of median survival time for treated (T)/control (C) groups are calculated. The criterion for activity is T/C×100≥120%.

Data set [4] in a line: LD50 Tests. The settings on record: in vivo; IP single dose - CD1 Male Mouse. The source says:
|(IP single dose - CD1 Male Mouse)

Data set [5] relates to Candida albicans (CN1863). Briefly: Antifungal screening, Candida albicans, broth and agar dilution assays. Format: cell-based. The conditions noted are these: Medium: Wellcotest sensitivity test agar plus 7% lysed horse blood. The source says:
Antifungal testing against Candida albicans (CN1863) was done with slight modifications using a combination of broth and agar dilution assays as outlined in Laboratory Handbook of Medical Mycology, Chapter 6, pages 441-446, M. R. McGinnis, Academic Press, New York, NY, 1980.
Medium: Wellcotest* sensitivity test agar plus 7% lysed horse blood.
Background: In agar dilution the substance is mixed into plates at graded concentrations.

Data set [6] has as its system L1210 cells. Description: Lymphocytic Leukemia L1210 Test. Type of data set: in vivo, CD-2-F1 mouse. The conditions noted are these: 150 mg/kg; protocol as P388/0 (intraperitoneal, days 1, 5, 9); active if ≥125%.
Excerpt: (§3) Methods for evaluating the antitumor activity of these compounds are essentially those used in the Tumor Panel by the Development Therapeutics Program, Division of Cancer Treatment, National Cancer Institute, A. Goldin, et al., Methods in Cancer Research, Vol. XVI, p. 165, Academic Press (1979). Some modifications in dose level and schedule have been made to increase the testing efficiency.
as §2
The protocol for this test is identical to that for P388/0, except that the number of L1210 cells implanted on day 0 is ~105/mouse. […]

In data set [7] the test system is Nippostrongylus brasiliensis (Immature - free living stages). Description: Anthelmintic screening, Nippostrongylus brasiliensis. Format: cell-based. The source says:
Anthelmintic testing against Nippostrongylus brasiliensis was done using methods as outlined in D. C. Jenkins, R. Armitage, and T. S. Carrington, Zetschrift fur Parasitenkunde 63, 261-269 (1980).

The test system of data set [8] is Lewis Lung Carcinoma. Description: Lewis Lung Carcinoma Test. Format: in vivo, mouse (BD-F1 mice; tumor from C57B1/6 mouse). The conditions noted are these: 150 mg/kg; administered as in P388/0 protocol; active if ≥140%.
Excerpt: as §3
This tumor arose spontaneously in the lung of a C57B1/6 mouse and is maintained by subcutaneous passage in that strain. The solid tumor is excised aseptically and placed in sterile saline. Pieces of viable tumor tissue are minced finely with scissors and forced through a 200 mesh stainless steel screen to disaggregate the tumor cells into a suspension. 10^6 Viable cells and injected intravenously into the tail vein of BD-F1, mice of the same sex weighing 20±3 g. In each test, several dose levels which bracket the LD20 for the compound are evaluated. Ten animals are included in each dose level group, and twenty animals in the untreated control group. The test compounds are prepared and aministered as in the P388/0 protocol. The day of death for each animal is recorded, the median identified for each group and the ratios of median survival time for treated (T)/control (C) groups are calculated. The criterion for activity is T/C×100≥140%.

For data set [9], the system named is B16 cells. Briefly: Melanotic Melanoma B16 test. Format: in vivo, B6C3-F1 mice. The conditions noted are these: dosing as in P388/0 test, active if ≥125%.
Excerpt: as §3
B6C3-F1 mice of the same sex, weighing 20+3 g, are used for this test. A suspension of B16 cells is prepared from a non-necrotic portion of solid tumor tissue obtained from a passage mouse. One gram of tumour is homogenized in 9 mL ice-cold Earle's salts solution and filtered through 1000 mesh screen to remove debris. 0.5 mL of the resulting brei is injected intraperitoneally into each animal. Dosing is carried out as in the P388/0 and L1210 tests. Days of death are recorded for a 60 day period, and T/C ratio calculated as in the P388/0 and L1210 tests. The criterion for activity is T/C×100≥125%.

For data set [10], the system named is Streptococcus pyogenes (CN10). Briefly: Antibacterial testing, Streptococcus pyogenes, agar dilution assay. Format: cell-based.
Excerpt: as §1

The subject of data set [11] is Eimeria tenella. Briefly: Antiprotozoal screening, Eimeria tenella (in vitro). Format: cell-based. The settings on record: read-out: Result (screen code, inhibition). The source says: Antiprotozoal testing against Eimeria tenella was done using methods outlined in V. S. Latter and D. Wilson, Parasitology 79, 169 (1979).
Data set [12] relates to P388/0 tumor cells. Briefly: Lymphocytic Leukemia P388/0 Test. Format: in vivo, CD2-F1 mice. The settings on record: median survival time; intraperitoneal, days 1, 5, 9; active if ≥120%; Optimal Dose (mg/kg): 2A 250; 2B 450; 3 120; 4 200; 5A 303; 6 366; 7 220; 8 300; 1A 300; 10 198; 11 300; 13 220; 15 555; 16 1013; 17B 250; 18 300; 19 40; 20G 125; 21C 168; 22D 180; 23B 18O.
Excerpt: as §3, §2

Counter-ions that a name gives are not always drawn. Some results are limits rather than exact numbers.

In the case of `CC(CO)(CO)NCc1ccc2ccc3cccc4ccc1c2c34` [Example 1A, 2-methyl-2-((1-pyrenylmethyl)amino)-1,3-propanediol hydrochloride], the inhibition at 40 µg/mL in data set [1] was in the range of 76 to 100%. The MIC in data set [2] was at most 5 µg/mL; in data set [5], 50 µg/mL; in data set [7], 50 µg/mL. In data set [3], this compound registered an LD20 of 375. In addition, the LD50 in data set [4] is 350 mg/kg. The “T/C × 100% Excluding 30 day Survivors” value in [6] is “+129%”.

`CC(CO)(CO)NCc1ccc2ccc3cccc4ccc1c2c34` [Example 1B, 2-methyl-2-((1-pyrenylmethyl)amino)-1,3-propanediol methanesulfonate]: the “T/C × 100% Excluding 60 day Survivors” value in data set [8] is 208%.

Take `CCC(CO)(CO)NCc1ccc2ccc3cccc4ccc1c2c34` [Example 5A, 2-Ethyl-2-((1-pyrenylmethyl)amino)-1,3-propanediol hydrochloride]: the “T/C × 100% Excluding 60 day Survivors” value in [9] (225 mg/kg) was “+159%”. In addition, the minimum inhibitory concentration (MIC) was found to be 3 µg/mL in data set [10], 3 µg/mL in data set [2], 50 µg/mL in data set [5] and 100 µg/mL in data set [7]. In addition, the inhibition at 40 µg/mL in [1] lay in the range of 51 to 75%. The compound also had an LD20 in [3] of 225. In data set [4], this compound registered a 50% lethal dose (LD50) of 160 mg/kg.

Consider `OCC(CO)(CO)NCc1ccc2ccc3cccc4ccc1c2c34` [Example 10, 2-Hydroxymethyl-2-((1-pyrenylmethyl)amino)-1,3-propanediol hydrochloride], for which the “T/C × 100% Excluding 60 day Survivors” value in [9] (150 mg/kg) is recorded as “+133%”. The MIC in data set [10] is 5 µg/mL; in data set [2], above 50 µg/mL; in data set [5] it was above 50 µg/mL; in [7], at least 50 µg/mL. This compound also yielded an LD20 in [3] of 215. Also, the LD50 in data set [4] came to 160 mg/kg. In data set [11], the inhibition at 0.37 µg/mL fell in the range of 76 to 100%.

Regarding “2-((6-Bromo-1-pyrenylmethyl)amino)-2-methyl-1,3-propanediol hydrochloride and 2-((8-Bromo-1-pyrenylmethyl)amino)-2-methyl-1,3-propanediol hydrochloride [Example 17B]”, in [12], the “T/C × 100% (Excluding 30 Day Survivors)” value was “+135%”. The compound also returned an LD20 in [3] of 557.

The inhibition is the relative decrease from the control value, in per cent. A word on the MIC: it is the least concentration at which growth counts as inhibited. By LD50 is commonly meant the dose expected to kill half of the subjects tested. Read a high LD50 as lower toxicity.
